# Data: US6444477B1, “Assay method for detecting 5-HT2B antagonists” (Pharmagene Laboratories Limited, priority 2000, dated 2002)
# Read-outs that look alike come from different tables or passages of the source. Marks after values point to notes of the source that are not given here.
# Columns and labels:
# [1] = target: T1, 5-HT2B receptor (Homo sapiens, UniProt P41595); details: cited from earlier work
# Target sequence in this assay (P41595 whole entry, looked up): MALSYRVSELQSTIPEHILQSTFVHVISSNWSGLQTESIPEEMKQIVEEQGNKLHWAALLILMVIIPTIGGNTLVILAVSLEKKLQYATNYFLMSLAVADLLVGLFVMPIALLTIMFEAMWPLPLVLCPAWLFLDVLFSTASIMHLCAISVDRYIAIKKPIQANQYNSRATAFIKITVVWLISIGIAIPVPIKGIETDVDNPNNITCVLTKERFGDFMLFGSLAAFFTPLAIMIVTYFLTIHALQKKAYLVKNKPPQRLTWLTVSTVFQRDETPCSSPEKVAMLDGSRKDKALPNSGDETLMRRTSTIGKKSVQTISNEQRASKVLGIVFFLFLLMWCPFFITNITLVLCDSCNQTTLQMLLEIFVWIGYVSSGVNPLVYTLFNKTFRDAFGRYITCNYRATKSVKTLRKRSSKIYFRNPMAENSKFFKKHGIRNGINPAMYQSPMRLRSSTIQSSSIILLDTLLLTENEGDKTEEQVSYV
# [2] = tested on: 5-HT receptor in human colon longitudinal muscle; assay: 5-HT-induced potentiation of electrically stimulated contractions of human colon longitudinal muscle strips; type: cell-based
# [3] = target: T1, 5-HT2B receptor; details: cited from earlier work; remark: listed apart in the source
# Target sequence in this assay (P41595 whole entry): as the sequence (P41595 whole entry, looked up) above
# [4] = target: T2, human 5-HT2A receptor (Homo sapiens, UniProt P28223); details: cited from earlier work
# [5] = target: 5-HT receptor in human colon longitudinal muscle (Homo sapiens, UniProt P41595); assay: 5-HT-induced potentiation of electrically stimulated contractions of human colon longitudinal muscle strips; type: cell-based
# [6] = target: T3, human 5-HT4 receptor (Homo sapiens, UniProt Q13639); details: cited from earlier work
# [7] = target: T4, human 5-HT2C receptor (Homo sapiens, UniProt P28335); details: cited from earlier work
# T4 sequence (P28335 33-458): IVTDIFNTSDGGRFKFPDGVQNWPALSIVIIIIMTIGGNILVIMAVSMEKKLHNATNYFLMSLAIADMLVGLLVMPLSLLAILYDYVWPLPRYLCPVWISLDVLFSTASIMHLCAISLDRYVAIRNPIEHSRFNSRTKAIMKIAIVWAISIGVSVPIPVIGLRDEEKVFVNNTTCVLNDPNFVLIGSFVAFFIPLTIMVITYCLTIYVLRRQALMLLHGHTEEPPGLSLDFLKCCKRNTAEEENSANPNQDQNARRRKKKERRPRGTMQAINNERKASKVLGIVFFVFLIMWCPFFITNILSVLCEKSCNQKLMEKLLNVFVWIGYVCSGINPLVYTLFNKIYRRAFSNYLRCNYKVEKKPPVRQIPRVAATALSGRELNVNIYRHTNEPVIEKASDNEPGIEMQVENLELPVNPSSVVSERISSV
# [8] = target: T4, human 5-HT2C receptor; details: cited from earlier work; remark: listed apart in the source
# [9] = target: T1, 5-HT2B receptor; details: cited from earlier work; remark: listed apart in the source
# Target sequence in this assay (P41595 whole entry): as the sequence (P41595 whole entry, looked up) above
# [10] = target: T3, human 5-HT4 receptor; details: marked #; cited from earlier work
# [11] = target: T2, human 5-HT2A receptor; details: cited from earlier work; remark: listed apart in the source
# T2 sequence (P28223 whole entry): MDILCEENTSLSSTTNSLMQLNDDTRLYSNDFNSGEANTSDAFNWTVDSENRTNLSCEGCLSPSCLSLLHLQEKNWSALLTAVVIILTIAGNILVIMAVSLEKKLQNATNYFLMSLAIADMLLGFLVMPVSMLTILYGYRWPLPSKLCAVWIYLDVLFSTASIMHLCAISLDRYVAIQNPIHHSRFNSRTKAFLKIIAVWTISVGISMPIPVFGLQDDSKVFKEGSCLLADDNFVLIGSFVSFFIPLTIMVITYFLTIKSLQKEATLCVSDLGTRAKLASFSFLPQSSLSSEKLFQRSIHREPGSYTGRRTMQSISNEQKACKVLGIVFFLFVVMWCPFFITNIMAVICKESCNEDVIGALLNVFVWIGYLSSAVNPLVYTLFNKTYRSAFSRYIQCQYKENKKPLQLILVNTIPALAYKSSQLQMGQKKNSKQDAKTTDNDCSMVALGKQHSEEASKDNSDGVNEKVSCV
# T3 sequence (Q13639 whole entry): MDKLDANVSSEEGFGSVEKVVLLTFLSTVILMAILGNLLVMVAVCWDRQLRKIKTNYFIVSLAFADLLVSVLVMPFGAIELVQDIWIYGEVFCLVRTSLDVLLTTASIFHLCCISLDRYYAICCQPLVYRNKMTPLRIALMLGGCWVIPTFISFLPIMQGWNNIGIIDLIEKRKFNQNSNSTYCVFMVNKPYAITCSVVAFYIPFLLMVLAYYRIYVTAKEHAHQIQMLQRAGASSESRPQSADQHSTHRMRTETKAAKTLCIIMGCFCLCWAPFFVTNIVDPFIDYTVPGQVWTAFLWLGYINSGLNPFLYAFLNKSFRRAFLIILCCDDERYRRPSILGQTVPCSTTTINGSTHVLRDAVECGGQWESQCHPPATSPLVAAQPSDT
# Sequence of 5-HT receptor in human colon longitudinal muscle (Homo sapiens, UniProt P41595) (P41595 whole entry): as the sequence (P41595 whole entry, looked up) above
compound,measurement,setting,value
"Cl.Cn1ccc2cc(NC(=O)Nc3cccnc3)ccc21 [SB-200646, N-(1-methyl-5-indolyl)-N′-(3-pyridyl)urea hydrochloride]",selectivity between 5-HT2B and 5-HT2C receptors,[1],Non-selective
NC1=N[C@H](O)[C@H]2[C@H]3O[C@]4(O)O[C@@H]([C@@H](O)[C@@]2(N1)[C@@H]4O)[C@]3(O)CO [tetrodotoxin],effect on contractile responses of colon smooth muscle to electrical stimulation,[2],inhibited
"Cn1ccc2cc3c(cc21)CCN3C(=O)Nc1cccnc1 [SB 206553, 5-methyl-1-(3-pyridylcarbamoyl)-1,2,3,5-tetrahydropyrrolo [2,3-f]indole]",pKB or pA2 for antagonists (*) at human 5-HT2B receptor,[3],9.0*
same,affinity from binding data (#) at human 5-HT2A receptor,[4]; marked #,6.0^#
same,Kb,[5],3.16 nM
same,antagonist potency against 5-HT response in human colon,[5],8.5
O=C(c1ccc(F)cc1)C1CCN(CCn2c(=O)[nH]c3ccccc3c2=O)CC1 [Ketanserin],pKB or pA2 for antagonists (*) at human 5-HT4 receptor,[6]; marked *,4.7*
CC[C@@H](CO)NC(=O)[C@@H]1C=C2c3cccc4c3c(cn4C)C[C@H]2N(C)C1 [Methysergide],pKB or pA2 for antagonists (*) at human 5-HT4 receptor,[6]; marked *,<5.0*
same,pKB or pA2 for antagonists (*) at human 5-HT2C receptor,[7],8.9*
"N-(1-methyl-1H-indol-5-yl)N′-(-bezyl)-2,3,4,9-tetrahydro-1H-beta-carboline [LY-23728]",selectivity for 5-HT2B over 5-HT2C and 5-HT2A receptors,[1],100 fold
CSc1ccc2c(c1)C(N1CCN(C)CC1)Cc1ccccc1S2 (stereo not shown) [Methiothepin],pKB or pA2 for antagonists (*) at human 5-HT4 receptor,[6],<6.0*
CN1[C@@H]2CC[C@H]1C[C@@H](OC(=O)C(CO)c1ccccc1)C2 (stereo partly shown) [atropine],effect on contractile responses of colon smooth muscle to electrical stimulation,[2],inhibited
Cc1cc2c(cc1Cl)N(C(=O)Nc1ccc(Oc3cccnc3C)nc1)CC2 [SB 242084],affinity from binding data (#) at human 5-HT2C receptor,[8],<6.0^#
same,affinity from binding data (#) at human 5-HT2B receptor,[9],7.0^#
same,affinity from binding data (#) at human 5-HT4 receptor,[10],<5.0^#
same,affinity from binding data (#) at human 5-HT2A receptor,[4],6.8^#
same,pKB estimate for antagonists at the 5-HT receptor in colon,"[5]; human colon longitudinal muscle, at least 3 concentrations (methiothepin a single concentration), at least 3 donors",6.3 ± 0.2
"Cc1cc(NC(=O)Nc2ccc3c(ccn3C)c2)sn1 [SB 204741, N-(1-methyl-5-indolyl)-N′-(3-methyl-5-isothiazolyl) urea]",affinity at human 5-HT4 receptor,[6]; neither * nor # printed,<5.0
same,pKB or pA2 for antagonists (*) at human 5-HT2A receptor,[11],<5.0*
same,pKB or pA2 for antagonists (*) at human 5-HT2B receptor,[3]; marked *,7.0*
same,Kb,[5],158 nM
same,antagonist potency against 5-HT response in human colon,[5],6.8
COC(=O)[C@@H]1[C@H]2C[C@H]3c4[nH]c5ccccc5c4CCN3C[C@@H]2CC[C@@H]1O [Yohimbine],affinity at human 5-HT2C receptor,[7],<5.0
"CC(C)c1cc(-c2ccc(F)c3ccccc23)nc(N)n1 [RS 127445, 2-amino-4-(4-fluoronaphth-1-yl)-6-isopropylpyrimidine]",affinity from binding data (#) at human 5-HT2B receptor,[9]; marked #,9.5^#
same,pKB or pA2 for antagonists (*) at human 5-HT2C receptor,[7]; marked *,6.4*
same,Kb,[5],0.398 nM
CC(N)Cc1c[nH]c2ccc(O)cc12 (stereo not drawn) [Alpha-Me5-HT],pEC50 for agonists at human 5-HT4 receptor,[6],6.2
same,pEC50 for agonists at human 5-HT2B receptor,[3],8.4
same,pEC50 for agonists at the 5-HT receptor in colon,"[5]; human colon longitudinal muscle, mean ± s.e.mean, at least 3 donors",8.5 ± 0.1
"Cc1cc2c(cc1Cl)N(C(=O)Nc1cccc3ncccc13)CC2 [SB-215505, 6-chloro-5-methyl-N-(5-quinolyl)-2,3-dihydro-1H-indole-1-carboxamide]",potency as 5-HT2B receptor antagonist,[1],9.9
same,selectivity for 5-HT2B over 5-HT2C and 5-HT2A receptors,[1],100 fold
COc1ccc2[nH]cc(CCN)c2c1 [5-MeOT],pEC50 for agonists at human 5-HT4 receptor,[6],6.2
same,pEC50 for agonists at human 5-HT2B receptor,[3],7.6
same,pEC50 for agonists at the 5-HT receptor in colon,[5],6.8 ± 0.2
